The text below walks through data of patent publication US5726325A, “Tricyclic compounds” (Kyowa Hakko Kogyo Co., Ltd., priority 1995, dated 1998).

The test system of data set [1] is detrusor muscle. The data set is described as follows: Test Example 2: relaxation of guinea pig bladder strips, rhythmical contraction induced by 15 mM KCl. The data set is classed as cell-based, guinea pig (male albino Hartley). To be noted: Cavia porcellus, concentration decreasing detrusor contraction by 50%. The gist of the method: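 Male Hartley guinea pig detrusor strips, mucosa removed, in Krebs-Henseleit buffer at 37 °C, pH about 7.4, 5% CO2/95% O2, 1 g resting tension. Rhythmic contraction induced with 15 mM KCl; compound added cumulatively in half-log steps, 30 min each; […].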

The test system of data set [2] is bladder. Briefly: Test Example 4: micturition contraction interval in rats under partial restraint, oral. The data set is classed as in vivo, rat (male SD strain). As to conditions: Rattus norvegicus, 3 mg/kg oral, pre-administration = 100. An excerpt: As a control compound, cromakalim was used.
Data set [3] is described as follows: Test Example 3: arterial blood pressure in anesthetized rats, intravenous. The data set is classed as in vivo, rat (female SD strain). As to conditions: 1 mg/kg i.v. The text has this: (§1) Female SD strain rats (120-180 g) were used as test animals. Each animal was anesthetized by subcutaneous administration of 1 g/kg urethane. A catheter was inserted into the trachea to secure respiration. A polyethylene cannula (PE50) was inserted into the bladder from the entrance of the urethra and the urethra was ligated at the base. A catheter for blood pressure measurement was inserted into the right carotid artery, and a cannula for drug administration was inserted into the right jugular vein. The arterial catheter and the vesical catheter were connected to pressure transducers to measure the blood pressure and the intravesical pressure. After the bladder was stabilized over about 15 minutes, physiological saline was injected into the bladder at a volume of 0.2-0.7 ml to induce the rhythmical contraction almost once a minute. After the contraction of the bladder started, the contraction pattern was stabilized for 30-45 minutes, followed by intravenous administration of a test compound.
By this examination method, the effect of the test compounds on both blood pressure and vesical contraction can be evaluated. The blood pressure was measured 5, 15, and 30 minutes after the test compound was injected into the vein. Micturition contraction was induced by injecting physiological saline into the bladder. The change of average contraction interval (time between contractions) over 20 minutes was expressed as the relative value based on the pre-administration value which was regarded as 100.

Data set [4] relates to detrusor muscle. The data set is described as follows: Test Example 1: relaxation of guinea pig bladder strips contracted with 50 mM KCl. To be noted: Cavia porcellus; contraction induced by 50 mM KCl; concentration decreasing detrusor contraction by 50%. The data set is classed as cell-based, guinea pig (male albino Hartley). The gist of the method: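 Mucosa-free detrusor strips from male Hartley guinea pigs were held at 1 g in Krebs-Henseleit, 37°C, 5% CO2/95% O2, pH about 7.4, and contracted with 50 mM KCl. Compound was added cumulatively in half-log steps, 30 min per concentration; IC50 is the concentration giving 50% relaxation of KCl tension.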

Data set [5] has as its system bladder. Briefly: Test Example 3: vesical contraction interval in anesthetized rats, intravenous. To be noted: 1 mg/kg i.v., average over 20 minutes, relative to pre-administration value. The data set is classed as in vivo, rat (female SD strain).
Description: as §1, with “After the contraction of the bladder started, the contraction pattern was stabilized for 30-45 minutes, followed by intravenous administration of a test compound.” left out
By this examination method, the effect of the test compounds on both blood pressure and vesical contraction can be evaluated. The blood pressure was measured 5, 15, and 30 minutes after the test compound was injected into the vein. […] The change of average contraction interval (time between contractions) over 20 minutes was expressed as the relative value based on the pre-administration value which was regarded as 100.

Structures are written as SMILES.

Take `CC(O)(C(=O)Nc1cccc2c1C(=O)c1sccc1CO2)C(F)(F)F` (centres unmarked) [Compound 7, 9-(3,3,3-Trifluoro-2-hydroxy-2-methylpropanoylamino)-4,10-dihydrothieno[3,2-c][1]benzoxepin-10-one]: the IC50 in data set [1] is 2.1 µM; in data set [4], 2.4 µM. Also, the response vs control in vivo at 3 mg/kg in data set [2] (1 hr) is 132%; in data set [2] (2 hr), 141%; in data set [2] (3 hr), 149%; in data set [2] (4 hr) it was 154%; in data set [2] (5 hr), 146%. The “Change of average arterial blood pressure” value is reported as -4% in data set [3] (5 min), “+1%” in data set [3] (15 min) and “+4%” in data set [3] (30 min). Further, the “Change of contraction interval” value in data set [5] is “+186%”.
